Laboratory results taken from the kinase profiling compilation of Christmann-Franck et al. (2016).

Legend:
Experiment in all cases: KINOMEscan competition binding
Conditions in all cases: compound 10.0 µM
[1] = test system: EGFR (human), P00533 [747-751 del / S ins]
RIOK3 (human) = RIOK3 (human) (UniProt O14730)
[2] = test system: EGFR (human), P00533 [G719C; 746-750 del]
SRPK1 (human) = SRPK1 (human) (UniProt Q96SB4)
[3] = test system: FLT3 (human), P36888 [N841I]
[4] = test system: EGFR (human), P00533 [A750P; 747-749 del]
[5] = test system: FLT3 (human), P36888 [D835Y]
CHEK1 (human) = CHEK1 (human) (UniProt O14757)
TNK2 (human) = TNK2 (human) (UniProt Q07912)
CSF1R (human) = CSF1R (human) (UniProt P07333)
SIK2 (human) = SIK2 (human) (UniProt Q9H0K1)
[6] = test system: EGFR (human), P00533 [P753S; 747-752 del]
GAK (human) = GAK (human) (UniProt O14976)
FRK (human) = FRK (human) (UniProt P42685)
[7] = test system: EGFR (human), P00533 [L861Q]
SLK (human) = SLK (human) (UniProt Q9H2G2)
SIK1 (human) = SIK1 (human) (UniProt P57059)
LCK (human) = LCK (human) (UniProt P06239)
PIP5K1A (human) = PIP5K1A (human) (UniProt Q99755)
PDGFRB (human) = PDGFRB (human) (UniProt P09619)
BMP2K (human) = BMP2K (human) (UniProt Q9NSY1)
BLK (human) = BLK (human) (UniProt P51451)
SRPK3 (human) = SRPK3 (human) (UniProt Q9UPE1)
KIT (human) = KIT (human) (UniProt P10721)
RPS6KA6 KD2 (human) = RPS6KA6 KD2 (human) (UniProt Q9UK32)
[8] = test system: KIT (human), P10721 [D816V]
[9] = test system: FLT3 (human), P36888 [ITD]
ULK1 (human) = ULK1 (human) (UniProt O75385)
[10] = test system: FLT3 (human), P36888 [D835H]
[11] = test system: ABL1 (human), P00519 [F317I]
[12] = test system: EGFR (human), P00533 [L858R]
RIOK1 (human) = RIOK1 (human) (UniProt Q9BRS2)
[13] = molecular target: TYK2 JH2 pseudokinase (human) (UniProt P29597)
RPS6KA1 KD2 (human) = RPS6KA1 KD2 (human) (UniProt Q15418)
[14] = test system: ABL1 (human), P00519 [F317L]
[15] = test system: EGFR (human), P00533 [752-759 del]
[16] = test system: KIT (human), P10721 [V559D]
KIT (human), P10721 [V559D], sequence (P10721 whole entry V559D, looked up): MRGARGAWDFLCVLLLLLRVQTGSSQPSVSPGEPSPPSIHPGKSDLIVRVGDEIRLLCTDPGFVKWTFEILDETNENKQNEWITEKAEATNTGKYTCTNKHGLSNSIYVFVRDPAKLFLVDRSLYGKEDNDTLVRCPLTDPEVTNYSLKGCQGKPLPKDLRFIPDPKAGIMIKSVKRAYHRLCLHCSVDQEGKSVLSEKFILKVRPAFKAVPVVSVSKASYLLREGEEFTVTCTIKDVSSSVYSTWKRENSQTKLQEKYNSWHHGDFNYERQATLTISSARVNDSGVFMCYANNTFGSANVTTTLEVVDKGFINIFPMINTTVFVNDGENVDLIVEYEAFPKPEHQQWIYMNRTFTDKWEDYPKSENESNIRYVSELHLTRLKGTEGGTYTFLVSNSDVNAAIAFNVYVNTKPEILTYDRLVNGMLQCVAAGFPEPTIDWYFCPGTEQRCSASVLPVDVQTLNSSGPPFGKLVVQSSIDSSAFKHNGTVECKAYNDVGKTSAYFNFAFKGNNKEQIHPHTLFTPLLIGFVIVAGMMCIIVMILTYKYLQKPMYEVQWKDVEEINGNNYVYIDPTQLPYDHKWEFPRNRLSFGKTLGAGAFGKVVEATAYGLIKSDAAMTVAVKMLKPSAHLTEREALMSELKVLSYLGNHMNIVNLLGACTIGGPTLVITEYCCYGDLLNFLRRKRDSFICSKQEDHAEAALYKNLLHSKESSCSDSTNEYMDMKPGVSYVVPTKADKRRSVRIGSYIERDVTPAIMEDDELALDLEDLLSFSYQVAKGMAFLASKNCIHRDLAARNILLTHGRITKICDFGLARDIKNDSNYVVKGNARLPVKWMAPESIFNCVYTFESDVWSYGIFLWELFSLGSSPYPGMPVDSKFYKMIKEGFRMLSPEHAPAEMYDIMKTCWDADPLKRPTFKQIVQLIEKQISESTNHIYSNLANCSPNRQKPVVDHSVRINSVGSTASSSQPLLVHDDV

SLK (human), sequence (Q9H2G2 whole entry, looked up): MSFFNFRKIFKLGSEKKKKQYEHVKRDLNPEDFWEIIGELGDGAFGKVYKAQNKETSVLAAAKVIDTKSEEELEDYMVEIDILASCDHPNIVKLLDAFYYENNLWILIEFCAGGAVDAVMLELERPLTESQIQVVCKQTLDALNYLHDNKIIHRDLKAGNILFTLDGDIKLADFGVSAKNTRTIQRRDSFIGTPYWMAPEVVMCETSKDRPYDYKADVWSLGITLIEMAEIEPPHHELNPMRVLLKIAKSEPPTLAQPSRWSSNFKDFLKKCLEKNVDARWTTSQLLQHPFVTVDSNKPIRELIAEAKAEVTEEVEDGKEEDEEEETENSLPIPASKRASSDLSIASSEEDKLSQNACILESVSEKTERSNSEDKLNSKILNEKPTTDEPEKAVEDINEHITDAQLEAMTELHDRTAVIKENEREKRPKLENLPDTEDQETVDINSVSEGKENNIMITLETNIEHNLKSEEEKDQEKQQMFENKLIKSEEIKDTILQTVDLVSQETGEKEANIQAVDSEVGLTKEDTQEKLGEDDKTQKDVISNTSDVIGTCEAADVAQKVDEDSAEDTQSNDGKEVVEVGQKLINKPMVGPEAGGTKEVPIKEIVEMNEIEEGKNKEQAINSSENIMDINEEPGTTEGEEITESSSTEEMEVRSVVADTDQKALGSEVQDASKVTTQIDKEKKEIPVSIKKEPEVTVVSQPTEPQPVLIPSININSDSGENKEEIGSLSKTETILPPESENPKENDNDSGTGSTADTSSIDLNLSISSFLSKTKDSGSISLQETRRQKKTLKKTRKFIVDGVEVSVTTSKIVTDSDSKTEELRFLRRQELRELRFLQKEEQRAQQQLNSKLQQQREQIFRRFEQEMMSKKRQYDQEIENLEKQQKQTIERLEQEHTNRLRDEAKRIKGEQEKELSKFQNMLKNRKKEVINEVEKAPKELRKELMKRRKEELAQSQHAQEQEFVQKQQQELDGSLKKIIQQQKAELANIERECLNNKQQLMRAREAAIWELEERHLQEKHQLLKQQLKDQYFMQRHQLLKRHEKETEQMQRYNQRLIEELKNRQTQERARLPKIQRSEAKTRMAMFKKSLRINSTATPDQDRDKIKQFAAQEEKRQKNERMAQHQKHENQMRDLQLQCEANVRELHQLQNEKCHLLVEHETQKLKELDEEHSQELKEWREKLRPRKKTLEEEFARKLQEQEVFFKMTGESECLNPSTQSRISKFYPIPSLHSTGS
SRPK1 (human), sequence (Q96SB4 whole entry, looked up): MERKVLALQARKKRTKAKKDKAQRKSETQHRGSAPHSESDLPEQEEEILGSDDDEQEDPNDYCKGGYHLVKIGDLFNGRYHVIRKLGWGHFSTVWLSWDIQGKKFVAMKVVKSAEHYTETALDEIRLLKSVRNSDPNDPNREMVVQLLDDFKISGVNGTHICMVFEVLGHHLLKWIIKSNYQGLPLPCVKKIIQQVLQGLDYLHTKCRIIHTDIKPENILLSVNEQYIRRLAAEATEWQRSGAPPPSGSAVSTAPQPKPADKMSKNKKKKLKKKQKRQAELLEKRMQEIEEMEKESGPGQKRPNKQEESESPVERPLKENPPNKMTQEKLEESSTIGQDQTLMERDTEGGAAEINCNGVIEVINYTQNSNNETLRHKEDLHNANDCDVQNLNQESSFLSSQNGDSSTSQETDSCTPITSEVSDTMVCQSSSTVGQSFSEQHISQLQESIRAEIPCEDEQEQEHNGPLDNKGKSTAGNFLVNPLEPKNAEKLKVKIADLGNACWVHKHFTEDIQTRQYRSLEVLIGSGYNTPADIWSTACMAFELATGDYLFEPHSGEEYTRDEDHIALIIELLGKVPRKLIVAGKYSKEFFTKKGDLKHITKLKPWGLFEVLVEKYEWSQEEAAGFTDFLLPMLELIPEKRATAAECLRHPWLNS
PIP5K1A (human), sequence (Q99755 whole entry, looked up): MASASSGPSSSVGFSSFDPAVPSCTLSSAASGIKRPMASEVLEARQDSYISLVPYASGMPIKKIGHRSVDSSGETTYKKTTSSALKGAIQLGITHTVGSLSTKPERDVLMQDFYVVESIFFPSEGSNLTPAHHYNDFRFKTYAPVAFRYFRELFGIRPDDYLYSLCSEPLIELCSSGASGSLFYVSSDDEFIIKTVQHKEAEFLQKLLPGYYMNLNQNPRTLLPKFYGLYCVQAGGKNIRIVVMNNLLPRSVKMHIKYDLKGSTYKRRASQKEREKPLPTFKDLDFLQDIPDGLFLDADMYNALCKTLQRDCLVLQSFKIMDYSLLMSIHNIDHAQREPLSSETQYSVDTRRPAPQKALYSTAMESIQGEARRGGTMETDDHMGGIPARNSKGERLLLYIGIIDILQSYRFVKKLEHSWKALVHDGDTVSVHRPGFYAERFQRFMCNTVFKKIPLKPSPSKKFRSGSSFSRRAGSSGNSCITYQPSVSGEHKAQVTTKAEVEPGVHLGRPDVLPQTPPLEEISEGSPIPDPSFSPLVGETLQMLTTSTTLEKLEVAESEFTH
TNK2 (human), sequence (Q07912 whole entry, looked up): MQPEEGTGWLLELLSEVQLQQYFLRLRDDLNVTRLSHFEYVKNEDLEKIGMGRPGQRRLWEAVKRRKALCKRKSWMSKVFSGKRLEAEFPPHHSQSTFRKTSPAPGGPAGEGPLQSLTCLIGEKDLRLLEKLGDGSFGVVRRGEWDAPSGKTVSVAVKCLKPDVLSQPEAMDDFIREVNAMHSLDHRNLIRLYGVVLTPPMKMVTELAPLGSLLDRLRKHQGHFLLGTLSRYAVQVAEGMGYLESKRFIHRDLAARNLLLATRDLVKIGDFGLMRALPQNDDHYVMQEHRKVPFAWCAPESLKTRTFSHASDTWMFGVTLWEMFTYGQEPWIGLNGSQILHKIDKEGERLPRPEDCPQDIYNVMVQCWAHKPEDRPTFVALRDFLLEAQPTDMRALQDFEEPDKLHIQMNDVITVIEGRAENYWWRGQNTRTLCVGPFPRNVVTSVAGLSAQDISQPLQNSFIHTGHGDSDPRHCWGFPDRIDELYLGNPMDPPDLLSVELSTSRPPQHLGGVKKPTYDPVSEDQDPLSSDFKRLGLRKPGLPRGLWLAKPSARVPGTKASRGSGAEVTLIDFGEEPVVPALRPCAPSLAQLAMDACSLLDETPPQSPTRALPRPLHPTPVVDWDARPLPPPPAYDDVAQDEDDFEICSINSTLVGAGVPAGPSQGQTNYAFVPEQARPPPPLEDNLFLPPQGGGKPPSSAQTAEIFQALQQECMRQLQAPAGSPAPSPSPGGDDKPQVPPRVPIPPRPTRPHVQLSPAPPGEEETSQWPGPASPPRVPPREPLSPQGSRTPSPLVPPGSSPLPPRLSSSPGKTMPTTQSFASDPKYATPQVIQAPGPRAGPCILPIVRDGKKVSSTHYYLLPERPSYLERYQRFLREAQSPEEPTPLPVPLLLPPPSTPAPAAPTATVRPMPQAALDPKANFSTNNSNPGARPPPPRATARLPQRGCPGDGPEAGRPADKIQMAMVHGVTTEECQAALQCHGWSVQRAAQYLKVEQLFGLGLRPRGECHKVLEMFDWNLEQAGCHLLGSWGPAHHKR
RIOK1 (human), sequence (Q9BRS2 whole entry, looked up): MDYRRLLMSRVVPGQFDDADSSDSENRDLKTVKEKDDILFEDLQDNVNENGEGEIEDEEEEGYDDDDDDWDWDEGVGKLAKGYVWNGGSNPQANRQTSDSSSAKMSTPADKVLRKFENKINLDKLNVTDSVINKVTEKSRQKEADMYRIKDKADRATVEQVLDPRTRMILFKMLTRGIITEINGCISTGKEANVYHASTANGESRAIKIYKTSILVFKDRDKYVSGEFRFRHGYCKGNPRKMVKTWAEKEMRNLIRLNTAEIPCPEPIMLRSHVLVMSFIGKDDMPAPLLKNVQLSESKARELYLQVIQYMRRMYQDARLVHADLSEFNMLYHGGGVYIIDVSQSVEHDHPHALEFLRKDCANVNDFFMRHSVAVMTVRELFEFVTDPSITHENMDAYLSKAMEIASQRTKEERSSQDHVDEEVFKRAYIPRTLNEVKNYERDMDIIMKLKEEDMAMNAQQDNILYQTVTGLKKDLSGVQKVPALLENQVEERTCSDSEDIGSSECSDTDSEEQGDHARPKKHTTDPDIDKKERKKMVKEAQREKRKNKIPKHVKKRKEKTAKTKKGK
KIT (human), sequence (P10721 whole entry, looked up): as the sequence (P10721 whole entry V559D, looked up) above, with D559V counted along it

`COc1cc(N2CCN(C)CC2)ccc1Nc1ncc2c(n1)N(c1ccccc1)CCC(=O)N2` showed a kinase still bound, per cent of control [1] of 11%, a kinase still bound, per cent of control (RIOK3 (human)) of 23% and a kinase still bound, per cent of control [2] of 12%. It also gave a kinase still bound, per cent of control (SRPK1 (human)) of 29%, a kinase still bound, per cent of control [3] of 23% and a kinase still bound, per cent of control [4] of 5.2%. For the same compound, the kinase still bound, per cent of control [5] was 8.6%, the kinase still bound, per cent of control (CHEK1 (human)) was 27% and the kinase still bound, per cent of control (TNK2 (human)) was 5%. The kinase still bound, per cent of control (CSF1R (human)) was 16%, the kinase still bound, per cent of control (SIK2 (human)) was 26% and the kinase still bound, per cent of control [6] was 17%. The kinase still bound, per cent of control (GAK (human)) was 2%, the kinase still bound, per cent of control (FRK (human)) was 2.8% and the kinase still bound, per cent of control [7] was 21%. It also gave a kinase still bound, per cent of control (SLK (human)) of 29%, a kinase still bound, per cent of control (SIK1 (human)) of 12% and a kinase still bound, per cent of control (LCK (human)) of 25%. For the same compound, the kinase still bound, per cent of control (PIP5K1A (human)) was 34%, the kinase still bound, per cent of control (PDGFRB (human)) was 1.1% and the kinase still bound, per cent of control (BMP2K (human)) was 15%. The kinase still bound, per cent of control (BLK (human)) was 21%, the kinase still bound, per cent of control (SRPK3 (human)) was 30% and the kinase still bound, per cent of control (KIT (human)) was 5.7%. For the same compound, the kinase still bound, per cent of control (RPS6KA6 KD2 (human)) was 18%, the kinase still bound, per cent of control [8] was 2.4% and the kinase still bound, per cent of control [9] was 31%. The kinase still bound, per cent of control (ULK1 (human)) was 24%, the kinase still bound, per cent of control [10] was 18% and the kinase still bound, per cent of control [11] was 17%. It also gave a kinase still bound, per cent of control [12] of 31%, a kinase still bound, per cent of control (RIOK1 (human)) of 27% and a kinase still bound, per cent of control [13] of 28%. It also gave a kinase still bound, per cent of control (RPS6KA1 KD2 (human)) of 33%, a kinase still bound, per cent of control [14] of 16% and a kinase still bound, per cent of control [15] of 14%. For the same compound, the kinase still bound, per cent of control [16] was 4.6%.
